According to patent US12564631B2, “Phytosphingosine derivatives as adjuvants in immune stimulation” (Helmholtz-Zentrum für Infektionsforschung GmbH, priority 2020, dated 2026):
“Also recorded” adds a separate entry of the source.

Experiments:
CD19+ B cells = assay: CFSE proliferation assay of CD19+ B cells after interaction with Ova/adjuvant-matured bone marrow derived DCs (APC); format: cell-based, mice; details: FIG. 3A; for capacity to induce antigen specific CD19+ B cell proliferation: DCs restimulated with Ovalbumin + 10 μg compound for 24 h, interaction with APC for 5 days; for toxicity against B cells: effect not comparable to adjuvant controls
Experimental: FIG. 3A: Cell proliferation tracked by CFSE dilution of B cells after interaction with matured Antigen Presenting Cells (APC). With every cell division, the CFSE signal strength is approximately halved. The observed cell numbers indicate the ratio of proliferating viable CD19+ B cells.
(§1) In order to assess the properties of the inventive compounds in antigen-specific T and B cell stimulation, the compounds were administered to cultured bone marrow cells in a CFSE assay.
(§2) Briefly, femurs and Tibiae of female 4-12 weeks old C57Bl6 (or BALB/c for TCR HA) were removed and purified from the surrounding muscle tissue (Kleenex tissues). Intact Bones were left in 70% ethanol for 2-5 min for disinfection. Both ends were cut with scissors and the bone marrow were flushed with PBS using a syringe with a 0.45 mm diameter needle, clusters were disintegrated by vigorous pipetting.
(§3) In order to obtain activated antigen presenting dendritic cells (DCs), bone marrow cells were cultured with GM-CSF. On Day 0, cells were seeded in a concentration of 2×10^6 cells per 100 mm dish (bacteriological petri dishes) in 10 ml RPMI-10 (100 U Pen/100 μg Strept/2 mM Glutamin/50 μm ß-Mercaptoethanol/10% FCS heat-inactivated and filtered 0.22 μm Filter) containing 200 Units GM-CSF. On Day 3 another 10 ml RPMI-10 containing 200 U GM-CSF were added to the plates. On Day 6 half of the culture supernatants (10 ml) were collected, centrifuged and the cell pellet resuspended in 10 ml fresh RPMI-10/200 U GM-CSF and given back into the original plates.
(§4) Subsequently, the DCs were incubated with Ovalbumin (as antigen) alone or co-administered with known adjuvants, such as α-GalCerMPEG, aßGalCerMPEG or TLR2/6 ligand (BPPcysMPEG), or the novel phytosphingosine derivatives of the present invention. The activation of DCs was controlled by FACS analysis of different CD markers, such as CD40, CD54, CD80, CD86, CD83, MHCI and MHCII.
(§5) The effect of the compounds of the present invention was then ascertained via co-incubation of naïve T or B cells, obtained from mice (OTI or OTII mice) with previous exposure to the Ova antigen, with DCs that had been treated with the compounds of the invention.
CFSE staining of the CD4+ or CD8+ naïve T cells is then carried out according to standard procedures. Subsequently, 2-5×10^4 DCs (as mature antigen presenting cells APCs) are incubated with 4×10^5 CFSE+ T cells (OTI or OTII) per well (ratio DC/T cells is […]). A CFSE proliferation assay is then conducted, using on Day +5 or on Day +7 a FACS analysis (CFSE/LD/CD4/CD8/CD19/Thy1.1), providing a cell count for the desired cell type based on CFSE. With every cell division, the CFSE signal strength is approximately halved. The cells marked with CFSE can therefore be used to determine the proliferation of CD19+ B cells, CD4+ or CD8+ T cells in response to treatment with activated DCs, that were treated with or without the compounds of the invention.
As is shown in FIG. 3A, cell proliferation of B cells is tracked by CFSE dilution after interaction with APCs. With every cell division, the CFSE signal strength is approximately halved. Therefore, the compounds of the invention show an effect on inducing antigen specific CD19+ cell proliferation.
On day −1, mature DCs were restimulated with Ovalbumin (antigen) co-administered with 10 μg of the different novel phytosphingosine derivatives (0964-1917) or with positive controls (α-GalCerMPEG, aßGalCerMPEG, CDA or BPPcysPEGdef) for 24 h.

splenocytes = assay: Unspecific proliferation assay of splenocytes ([3H]thymidine incorporation); format: cell-based, mice; details: for induction of unspecific proliferation in splenocytes: summary statement; for Stimulation index (SI): splenocytes restimulated 96 h with 1, 10 and 20 μg/ml compound, ratio of [3H]-thymidine uptake of stimulated versus non-stimulated samples, FIG. 2E/2F
Experimental: FIG. 2: Analysis of unspecific proliferative responses of murine cells stimulated without or with enhanced concentrations of the Phytosphingosine-compounds. Splenocytes from mice were re-stimulated for 96 h with different concentrations of adjuvant (1, 10 and 20 μg/ml). The results are presented by are expressed (A-C) as counts per minute (cpm) and (D-F) stimulation index (SI) being the ratio of [^3H]-thymidine uptake of stimulated versus non-stimulated samples. (A) and (D) show data for α-GalCer controls, (B) and (E) show data for IPB1901-1910, and (C) and (F) show data for IPB1911-1917.
In order to assess the properties of the inventive compounds in antigen-unspecific immune response stimulation the compounds were administered to splenocytes in an established proliferation assay.
For the proliferation assay, splenocytes (5×10^6 cells/ml) are seeded at 100 μl per well in a U-bottomed 96-well microtiter plate (Sarstedt Inc., Newton, N.C.) and cultured in quadruplicates 4 days in the presence of enhanced concentrations of adjuvant (1, 10 and 20 μg/ml)), 5 μg/ml of Concanavalin A (max); or medium alone. Eighteen hours before harvesting, 1 μCi of [3H]thymidine (Amersham International, Freiburg, Germany) is added to each well. Cells are harvested on paper filters (Filtermat A; Wallac, Freiburg, Germany) using a cell harvester (Inotech, Wohlen, Switzerland) and the incorporation of [3H] thymidine into the DNA of proliferating cells is determined using a scintillation counter (Wallac 1450, Micro-Trilux).

CD4+ T cells = assay: CFSE proliferation assay of CD4+ T cells after interaction with Ova/adjuvant-matured bone marrow derived DCs (APC); format: cell-based, mice; details: for capacity to induce antigen specific CD4+ T cell proliferation: DCs restimulated with Ovalbumin + 10 μg compound for 24 h, interaction with APC for 5 days; for stimulating effect of CD4+ T cells versus controls with only antigen Ova: CFSE loss up to 7 days, DCs activated with Ova + 10 μg compound, FIG. 4A/4B
From the text: FIG. 3B: Cell proliferation tracked by CFSE dilution of CD4+ T cells after interaction with matured Antigen Presenting Cells (APC). With every cell division, the CFSE signal strength is approximately halved. The shown cell numbers indicate the ratio of proliferated live CD4+ T cells.
(§6) FIG. 4: Effect after treatment with IPB 0964-1917—Cell proliferation tracked by CFSE loss of T cells after interaction with matured Antigen Presenting Cells (APC). With every cell division, the CFSE signal strength is reduced. The shown cell numbers indicate the ratio of proliferating T and B cells (7 steps are shown). (A) Numbers of CD4+ T cells are shown at different proliferation steps up to 7 days measuring the loss of CFSE. Naïve cells were treated with one of IPB1901-1912 together with DCs activated with Ova prior to the CFSE assay. (B) Numbers of CD4+ T cells are shown at different proliferation steps up to 7 days measuring the loss of CFSE. Naïve cells were treated with one of IPB2033-2044 together with DCs activated with Ova prior to the CFSE assay. (C) Numbers of CD8+ T cells are shown at different proliferation steps up to 7 days measuring the loss of CFSE. Naïve cells were treated with one of IPB1901-1912 together with DCs activated with Ova prior to the CFSE assay. (D) Numbers of CD8+ T cells are shown at different proliferation steps up to 7 days measuring the loss of CFSE. Naïve cells were treated with one of IPB2033-2044 together with DCs activated with Ova prior to the CFSE assay.
as §1, §2, §3, §4, §5
(§7) Naïve T cells were derived from LN/spleen from OTI or OTII mice. The MagniSort™ Mouse CD4 naïve or CD8 naïve T cell Enrichment Kit is designed for the magnetic separation of CD4 or CD8 naïve T cells by negative selection from mouse spleens or lymph nodes utilizing a biotinylated antibody cocktail and streptavidin-coated magnetic beads. Undesired cells are bound by antibody (Anti-Mouse CD8 or CD4/CD11b CD19/CD24/CD44/CD45R(B220)/CD49b(Integrin α 2)/Ly-6G (Gr-1)/γδ TCR/TER-119) and then magnetic beads that, when placed in a magnetic field, leave CD4 or CD8 naïve T cells untouched and free in solution. […]

CD8+ T cells = assay: CFSE proliferation assay of CD8+ T cells after interaction with Ova/adjuvant-matured bone marrow derived DCs (APC); format: cell-based, mice; details: for effect to induce antigen specific CD8+ T cell proliferation: DCs restimulated with Ovalbumin + 10 μg compound for 24 h, interaction with APC for 5 days, FIG. 3C; for stimulating effect of CD8+ T cells versus controls with only antigen Ova: CFSE loss up to 7 days, DCs activated with Ova + 10 μg compound, FIG. 4C/4D
From the text: FIG. 3C: Cell proliferation tracked by CFSE dilution of CD8+ T cells after interaction with matured Antigen Presenting Cells (APC). With every cell division, the CFSE signal strength is approximately halved. The shown cell numbers indicate the ratio of proliferated live CD8+ T cells
as §6, §1, §2, §3, §4, §5, §7

[1] = test system: Th1-type / Th2-type response; details: literature cited in background; cited from earlier work

| SMILES | induction of unspecific proliferation in splenocytes (splenocytes) | capacity to induce antigen specific CD4+ T cell proliferation (CD4+ T cells; FIG. 3B) | effect to induce antigen specific CD8+ T cell proliferation (CD8+ T cells) | stimulating effect of CD4+ T cells versus controls with only antigen Ova (CD4+ T cells) | stimulating effect of CD8+ T cells versus controls with only antigen Ova (CD8+ T cells) | toxicity against B cells (CD19+ B cells) | Stimulation index (SI) (splenocytes) | further results |
| --- | --- | --- | --- | --- | --- | --- | --- | --- |
| CCCCCCCCCCCCCCNC(=O)CN(C(=O)[C@@H](Cc1ccccc1)NC(C)=O)[C@@H](CO[C@H]1OC(CO)[C@H](O)C(O)C1O)[C@H](O)[C@H](O)CCCCCCCCCCCCCC (stereo partly drawn) [IPB 1904] | beneficial induction of unspecific proliferation | – | – | – | – | – | – | capacity to induce antigen specific CD19+ B cell proliferation (CD19+ B cells): particularly high capacity; also recorded: beneficial capacity |
| CCCCCCCCCCCCCCCCCCCCCCCC(=O)N(CC(=O)NCC(OC)OC)[C@@H](CO[C@H]1OC(CO)[C@H](O)C(O)C1O)[C@H](O)[C@H](O)CCCCCCCCCCCCCC (stereo partly drawn) [IPB 1911] | beneficial induction of unspecific proliferation | high capacity; also recorded: beneficial capacity | strong effect; also recorded: beneficial effect | – | – | – | – | – |
| CCCCCCCCCCCCCC[C@@H](O)[C@@H](O)[C@H](CO[C@H]1O[C@H](CO)[C@H](O)[C@H](O)[C@H]1O)NC(=O)CCCCCCCCCCc1ccc(F)cc1 [7DW8-5] | – | – | – | – | – | – | – | type of response elicited (Th1 / Th2) [1]: elicit a Th1 response |
| CCCCCCCCCCCCCC[C@@H](O)[C@@H](O)[C@H](CO[C@H]1OC(CO)[C@H](O)C(O)C1O)N(CC(=O)NCc1ccccc1)C(=O)CCCCCCC (stereo partly drawn) [IPB 1902] | beneficial induction of unspecific proliferation | – | – | stimulating effect of CD4+ T cells beyond controls | stimulating effect of CD8+ T cells beyond controls | may show some toxicity against B cells | – | toxicity against CD4+ T cells (CD4+ T cells; FIG. 3B, no improved effect over adjuvant controls): may show some toxicity against CD4+ T cells |
| CCCCCCCCCCCCCCCCCCCCCCCC(=O)N(CC(=O)NCCC(=O)O)[C@@H](CO[C@H]1OC(CO)[C@H](O)C(O)C1O)[C@H](O)[C@H](O)CCCCCCCCCCCCCC (stereo partly drawn) [IPB 1910] | beneficial induction of unspecific proliferation | high capacity; also recorded: beneficial capacity | strong effect; also recorded: beneficial effect | – | – | – | ca. 2 | – |
| CCCCCCCCCCCCCC[C@@H](O)[C@@H](O)[C@H](CO[C@H]1OC(CO)[C@H](O)C(O)C1O)N(CC(=O)NCCCCCCCCCCCC)C(=O)CCCCCCCCCCCCC (stereo partly drawn) [IPB 1901] | beneficial induction of unspecific proliferation | – | – | stimulating effect of CD4+ T cells beyond controls | stimulating effect of CD8+ T cells beyond controls | may show some toxicity against B cells | 4 | – |
| CCCCCCCCCCCCCCCCCC(=O)N(CC(=O)NCCC(=O)OC(C)(C)C)[C@@H](CO[C@H]1OC(CO)[C@H](O)C(O)C1O)[C@H](O)[C@H](O)CCCCCCCCCCCCCC (stereo partly drawn) [IPB 1909] | – | high capacity; also recorded: beneficial capacity | strong effect; also recorded: beneficial effect | – | – | – | – | capacity to induce antigen specific CD19+ B cell proliferation (CD19+ B cells): particularly high capacity; also recorded: beneficial capacity |
| CCCCCCCCCCCCCCCCCCCCCCCC(=O)N[C@@H](CO[C@H]1O[C@H](CO)[C@H](O)[C@H](O)[C@H]1O)[C@H](O)[C@H](O)CCCCC [OCH] | – | – | – | – | – | – | – | type of response elicited (Th1 / Th2) [1]: elicit a Th2-type response |
| CCCCCCCCCCCCCC[C@@H](O)[C@@H](O)[C@H](CO[C@H]1OC(CO)[C@H](O)C(O)C1O)N(CC(=O)NC1CCCCC1)C(=O)CCCCCCCCCCC (stereo partly drawn) [IPB 1903] | beneficial induction of unspecific proliferation | high capacity; also recorded: beneficial capacity | – | stimulating effect of CD4+ T cells beyond controls | stimulating effect of CD8+ T cells beyond controls | may show some toxicity against B cells | > 10 | – |
